Test results from PMC6149849, “Cymantrenyl-Nucleobases: Synthesis, Anticancer, Antitrypanosomal and Antimicrobial Activity Studies” (Molecules : A Journal of Synthetic Chemistry and Natural …, 2017).
Where two headings read alike, the source gives them in different places.

Tests used:
[1] = tested on: MCF-7/DX (estrogen-responsive breast adenocarcinoma resistant to doxorubicin); assay: cells; type: cell-based, human
Method: The inhibitory effect of cymantrene derivatives on cell proliferation and growth was determined based on survival curves and was expressed as IC50 values (concentration required to achieve a 50% decrease in cell viability when compared to the viability of untreated control cells) calculated using GraphPad Prism 4.02 software for Windows (GraphPad Software, San Diego, CA, USA). Cell viability was determined by the MTT microplate spectrophotometric cytotoxicity test.
Anticancer activity of cymantrene derivetives were determined on the basis of their cytotoxic effects on a panel of human cancer cells, as derived from different types of solid tumors: estrogen responsive breast adenocarcinoma (MCF-7), triple negative breast adenocarcinoma (MDA-MB-231), ovarian adenocarcinoma (SKOV-3), non-small cell lung carcinoma (A549), hepatocellular carcinoma (HepG2), and glioblastoma (U-87 MG).
Cells were grown as a monolayer in DMEM growth medium, supplemented with 10% FBS, penicillin (10 U/mL) and streptomycin (50 μg/mL), under standard conditions (37 °C, 5% CO2 and 95% air, 100% humidity) and periodically checked for Mycoplasma contamination.
The cytotoxicity of cymantrene derivatives was evaluated by the MTT microplate methods as described elsewhere [67] by incubating the cells with increasing concentrations of tested compounds for 24 h. Briefly, 0.1 mL of logarithmically growing cells were seeded in a 96-well microplate (5 × 10^4 cells/well) a day before the experiments and after 24 h of culture, tested compounds, dissolved in DMSO, and diluted in culture medium, were added. […] After further incubation for 24 h, the medium was replaced with fresh medium and the cells were allowed to grow for additional 48 h. Then, the medium was aspirated and 0.05 mL of MTT (final concentration of 5 mg/mL medium) added to each well, and the cells were incubated for further 4 h. The absorbance of the product, resulting from the MTT reduction, was read with a microplate reader at 545 nm. The percentage of viable cells was calculated by comparing the absorbance of treated cells with that of the untreated control cells (taken as 100%). The IC50 concentration of each compound was calculated from the cell survival curves using GraphPad Prism 4.02 software for Windows (GraphPad Software, San Diego, CA, USA).

SKOV-3 cells = assay: Intracellular ROS, H2DCF-DA fluorescent probe; type: cell-based, human; conditions: SKOV-3, 0.5 × IC50, IC50, 2 × IC50
Excerpt: Oxidative stress is a part of the cytotoxic activity of many anticancer agents and the production of reactive oxygen species (ROS) is considered as one of the main molecular mechanisms accompanying chemotherapy, radiotherapy, and photodynamic therapy. Since ROS can act as both oxidants and antioxidants, depending on the conditions, pro- and anti-oxidant therapies have been proposed for the treatment of cancer. So far, both ROS scavenging and ROS boosting anticancer therapies have shown promising results in vitro and in vivo [48]. Using an appropriate fluorescence probe, we measured the amount of ROS in cancer cells that were treated with cymantrene derivatives. […] The greatest increase in ROS was observed after […], with the highest concentration of cymantrene conjugates employed (2 × IC50) (Figure 8). […] As compounds 1, 3, 5, and C were effective in the production ROS, as well as in the induction of apoptosis and autophagy, these processes might contribute together to the cytotoxic action of the molecules.
The intracellular ROS were measured with the oxidation-sensitive fluorescent probes 2′,7′-dichlorodihydrofluorescein diacetate (H2DCF-DA) (Sigma-Aldrich, St. Louis, MO, USA), as described elsewhere. The cell-permeant non-fluorescent dye H2DCF-DA is a reduced form of fluorescein that inside the cell, upon cleavage of the acetate groups by intracellular esterases and oxidation by ROS, is converted into the highly fluorescent product 2′,7′-dichlorofluorescein (DCF) (λex/λem: 498/525 nm). For the assay, 2 × 10^4 cells were seeded into wells of black flat-bottom 96-well microplates a day before the experiment. The next day, test compounds were added at concentrations of 0.5 × IC50, 1 × IC50, and 2 × IC50. […] After 24 h incubation, medium was removed, cell monolayers were washed twice with HBSS and 5 µM H2DCF-DA, dissolved in HBSS, was added to each well. The cells were incubated with the fluorescent probe for 30 min in the dark at 37 °C, and then the fluorescence of produced DCF was monitored over a time period of 0–3 h at 15-min intervals with a microplate reader.

S. aureus ATCC 25923 = assay: Effect on bacterial morphology (SEM) with MIC and MBC; type: cell-based, Staphylococcus aureus
Method: In order to elucidate the bactericidal mechanism of action of cymantrenes, the effect of compound 1 on the morphology of S. aureus ATCC 25923 was exemplary studied by scanning electron microscopy (SEM) (Figure 9).
The effect of compound 1 on bacterial morphology was studied by SEM, as previously described. Briefly, samples of S. aureus ATCC 25923 (10^5 CFU/mL) were centrifuged (600× g, 5 min) and resuspended in growth medium containing compound 1 at concentration of 48 or 64 µg/mL. After incubation for 24 h at 37 °C, the cells were washed twice with PBS (0.1 × PBS), fixed with 2.5% glutaraldehyde (overnight), filtered (0.2 μm, pore size cutoff), and subsequently dehydrated in a series of ethanol washes (30%, 50%, 70%, 80%, 90% and 100%; twice for 15 min). The solvent was then evaporated and the samples were coated with a thin layer of platinum (15 nm). SEM images were recorded using a SEM Inspect F50 (FEI Co., Eindhoven, The Netherlands) at an energy range of 10–15 keV.

[2] = tested on: Clinical S. aureus (MRSA) 31/12; assay: Antibacterial liquid microdilution, clinical isolate; type: cell-based, Staphylococcus aureus
Method: (§1) This lack of activity against E. coli can be probably explained by an impeded cellular uptake of the compounds through the Gram-negative cell wall that consists of two layers and effective protein efflux pump systems. The antibacterial activities of 1 and C were further tested against four clinical isolates of S. aureus and two clinical isolates of S. epidermidis (Table 4).
(§2) The antibacterial activity of CymH, 1–7 and C and the reference drugs penicillin G and polymyxin B was tested by the liquid microdilution method under standard conditions using twofold dilution series, as described in the Clinical and Laboratory Standards Institute (CLSI), reference method M07-A8, and expressed as minimal inhibitory concentration (MIC) values. A panel of Gram-positive bacterial strains, S. aureus ATCC® 29213 (sensitive to methicillin, (MSSA)), S. aureus ATCC® 43300 (resistant to methicillin, (MRSA)), S. aureus ATCC 700787™ (intermediate to vancomycin, (VISA)), and S. epidermidis ATCC 12228™, and one Gram-negative, strain E. coli ATCC BAA-198™ (ESBL) were used. In addition, four clinical isolates of S. aureus (MSSA and MRSA) and two clinical isolates of S. epidermidis that were collected from different patients at the Medical University of Warsaw, Poland, were also tested. The bacterial cells were cultivated on tryptic soy agar (TSA) and nutrient agar (NA), according to ATCC recommendations. All of the strains were incubated at 37 °C. Tested compounds were dissolved in DMSO and then serially diluted twofold with cation-adjusted Mueller-Hinton broth (CAMHB). Then, 95 µL of the dilutions were dispensed into microdilution sterile plates (Mar-Four), followed by the addition of 5 µL of bacteria inoculum containing 5 × 10^4 CFU/mL. The final concentrations of the compounds ranged from 512 to 2 µg/mL. Each compound was tested in triplicate, and Penicillin G (8–0.15 µg/mL) and Polymyxin B (256–0.0625 µg/mL) were used as controls. The plates were incubated at 37 °C for 18 to 24 h depending on the bacterial strain. Thereafter, the absorbance was measured at λ = 540 nm and λ = 595 nm using a Spectrostar Omega microplate reader (BMG Labtech, Offenburg, Germany). The MIC value was defined as the lowest concentration of a compound that reduced the growth by 100%.

[3] = tested on: Clinical S. aureus (MSSA) 26/11; assay: as above; type: cell-based, Staphylococcus aureus
Method: as §1, §2

[4] = tested on: Clinical S. aureus (MRSA) 44/12; assay: as above; type: cell-based, Staphylococcus aureus
Method: as §1, §2

[5] = tested on: Clinical S. aureus (MSSA) 30/11; assay: as above; type: cell-based, Staphylococcus aureus
Method: as §1, §2

[6] = tested on: Clinical S. epidermidis (MSSA) 43/12; assay: as above; type: cell-based, Staphylococcus epidermidis
Method: as §1, §2

[7] = tested on: Clinical S. epidermidis (MSSA) 37/12; assay: as above; type: cell-based, Staphylococcus epidermidis
Method: as §1, §2

[8] = tested on: bloodstream forms of T. brucei clone 427-221a; conditions: cited from earlier work
[9] = tested on: human myeloid leukemia HL-60 cells; conditions: cited from earlier work
[10] = 24 h incubation, MTT, means ± SEM, read-out: cytotoxicity IC50, MCF-7/DX

| SMILES | IC50 [1, 10] | generated intracellular ROS (SKOV-3 cells) | MIC, Clinical S. aureus (MRSA) 31/12 [2] | MIC, Clinical S. aureus (MSSA) 26/11 [3] | MIC, Clinical S. aureus (MRSA) 44/12 [4] | MIC, Clinical S. aureus (MSSA) 30/11 [5] | MIC, Clinical S. epidermidis (MSSA) 43/12 [6] | MIC, Clinical S. epidermidis (MSSA) 37/12 [7] | further results |
| --- | --- | --- | --- | --- | --- | --- | --- | --- | --- |
| O=[C]=[Mn](=[C]=O)(=[C]=O)[CH]1C=CC=C1 [CymH, tricarbonyl(η^5-cyclopentadienyl)manganese, reference compound] | 144 ± 2.24 µM | – | – | – | – | – | – | – | – |
| O=c1[nH]c(=O)n(CCC(O)[C]23[CH]4[CH]5[CH]6[CH]2[Mn]5643[P](c2ccccc2)(c2ccccc2)c2ccccc2)cc1F.[C-]#[O+].[C-]#[O+] (racemic) [Compound 3] | 39.9 ± 1.41 µM | generated the largest amounts of ROS | – | – | – | – | – | – | – |
| Nc1ncnc2c1ncn2CCC(O)[C]12[CH]3[CH]4[CH]5[CH]1[Mn]4532[P](c1ccccc1)(c1ccccc1)c1ccccc1.[C-]#[O+].[C-]#[O+] (racemic) [Compound 5] | – | generated the largest amounts of ROS | – | – | – | – | – | – | – |
| O=C(CCn1cc(F)c(=O)[nH]c1=O)[C]12[CH]3[CH]4[CH]5[CH]1[Mn]4532.[C-]#[O+].[C-]#[O+].[C-]#[O+] (centres unmarked) [Compound 1] | – | generated the largest amounts of ROS | 64 µg/mL | 32 µg/mL | 32 µg/mL | 64 µg/mL | 8 µg/mL | 4 µg/mL | IC50 [1]: 137 ± 3.41 µM; MIC, S. aureus ATCC 25923 (S. aureus ATCC 25923): 32 µg/mL; minimal bactericidal concentration; MBC, S. aureus ATCC 25923 (S. aureus ATCC 25923): 128 µg/mL; bacterial morphology by SEM (S. aureus ATCC 25923; 48 µg/mL and 64 µg/mL, 24 h): severe morphological alterations in cell dimensions and structure, as well as the disruption of the outer envelope |
| Nc1ncnc2c1ncn2CCC(O)[C]12[CH]3[CH]4[CH]5[CH]1[Mn]45321[P](c2ccccc2)(c2ccccc2)CC[P]1(c1ccccc1)c1ccccc1.[C-]#[O+] (racemic) [Compound C] | – | generated the largest amounts of ROS | 32 µg/mL | 32 µg/mL | 32 µg/mL | 32 µg/mL | 16 µg/mL | 16 µg/mL | MIC and GI50 ratios of cytotoxic to trypanocidal activities ([8]; HL-60 / T. brucei): 7–13; Selectivity GI50 Ratio ([8]; HL-60 / T. brucei): 13.1; Selectivity MIC Ratio ([8]; HL-60 / T. brucei): 10; GI50 [8]: 1.67 ± 0.37 µM; T. brucei MIC [8]: 10 µM; GI50 [9]: 21.8 ± 8.6 µM; HL-60 MIC [9]: 100 µM |
